Experimental data as given in patent US20240343681A1, “MOLECULES HAVING PESTICIDAL UTILITY AND INTERMEDIATES AND PROCESSES RELATED THERETO” (priority 2021, published 2024).

How the values were obtained:
[1] = system: Beet Armyworm (Spodoptera exigua, LAPHEG) second instar larva; test: Bioassay on beet armyworm (BAW), 128-well diet tray assay; assay type: in vivo; settings: 50 μg/cm^2 on artificial diet, 25° C., five days
How it was run: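 Test molecule in 90:10 acetone–water applied at 50 μg/cm^2 onto 1 mL artificial diet and dried; one second-instar larva per well, eight wells. Held 5 days at 25 °C, 14:10 light–dark; percent mortality averaged over the eight wells.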

[2] = system: Yellow Fever Mosquito (Aedes aegypti, AEDSAE) larvae; test: Bioassay on yellow fever mosquito (YFM), 96-well plate larval assay; assay type: in vivo; settings: 4000 ppm (master plate solution), about 1 day-old larvae, 3 days
Procedure: Example B: Bioassays on Yellow Fever Mosquito (Aedes aegypti, AEDSAE) (“YFM”)
Master plates containing 400 μg of a molecule dissolved in 100 μL of dimethyl sulfoxide (DMSO) (equivalent to a 4000 ppm solution) are used. A master plate of assembled molecules contains 15 μL per well. To this plate, 135 μL of a 90:10 water/acetone mixture is added to each well. A robot (Biomek® NXP Laboratory Automation Workstation) is programmed to dispense 15 μL aspirations from the master plate into an empty 96-well shallow plate (“daughter” plate). There are 6 reps (“daughter” plates) created per master. The created “daughter” plates are then immediately infested with YFM larvae.
The day before plates are to be treated, mosquito eggs are placed in Millipore water containing liver powder to begin hatching (4 g into 400 mL). After the “daughter” plates are created using the robot, they are infested with 220 μL of the liver powder/larval mosquito mixture (about 1 day-old larvae). After plates are infested with mosquito larvae, a non-evaporative lid is used to cover the plate to reduce drying. Plates are held at room temperature for 3 days prior to grading. After 3 days, each well is observed and scored based on mortality.

Compound | activity against BAW (percent mortality, averaged over eight wells) [1] | activity against YFM (scored based on mortality) [2]
COCC(=O)Nc1cc(NC(=O)[C@H]2[C@H](c3cc(Cl)cc(Cl)c3)C2(Cl)Cl)ccc1Cl (racemic) [F39, trans-rac-2,2-Dichloro-N-(4-chloro-3-(2-methoxyacetamido)phenyl)-3-(3,5-dichlorophenyl)cyclopropane-1-carboxamide] | exhibited activity | exhibited activity
CCOC(C)C(=O)Nc1cc(NC(=O)C2C(c3cc(Cl)cc(Cl)c3)C2(Cl)Cl)ccc1Cl (racemic) [F40, trans-rac-2,2-dichloro-N-(4-chloro-3-(2-ethoxypropanamido)phenyl)-3-(3,5-dichlorophenyl)cyclopropane-1-carboxamide] | exhibited activity | exhibited activity
N#CCC(=O)Nc1cc(NC(=O)[C@H]2[C@H](c3cc(Cl)cc(Cl)c3)C2(Cl)Cl)ccc1Cl (racemic) [F42, trans-rac-2,2-Dichloro-N-(4-chloro-3-(2-cyanoacetamido)phenyl)-3-(3,5-dichlorophenyl)cyclopropanecarboxamide] | exhibited activity | exhibited activity
O=C(Cc1ccccc1)Nc1cc(NC(=O)[C@H]2[C@H](c3cc(Cl)cc(Cl)c3)C2(Cl)Cl)ccc1Cl (racemic) [F48, trans-rac-2,2-Dichloro-N-(4-chloro-3-(2-phenylacetamido)phenyl)-3-(3,5-dichlorophenyl)cyclopropane-1-carboxamide] | exhibited activity | exhibited activity
O=C(CN1CCOCC1)Nc1cc(NC(=O)[C@H]2[C@H](c3cc(Cl)cc(Cl)c3)C2(Cl)Cl)ccc1Cl (racemic) [F50, trans-rac-2,2-Dichloro-N-(4-chloro-3-(2-morpholinoacetamido)phenyl)-3-(3,5-dichlorophenyl)cyclopropane-1-carboxamide] | exhibited activity | exhibited activity
O=C(Nc1ccc(Cl)c(NC(=O)C(F)(F)F)c1)[C@H]1[C@H](c2cc(Cl)cc(Cl)c2)C1(Cl)Cl (racemic) [F53, trans-rac-2,2-dichloro-N-(4-chloro-3-(2,2,2-trifluoroacetamido)phenyl)-3-(3,5-dichlorophenyl)cyclopropane-1-carboxamide] | exhibited activity | exhibited activity
O=C(Nc1ccc(Cl)c(NC(=O)C(F)(F)Cl)c1)[C@H]1[C@H](c2cc(Cl)cc(Cl)c2)C1(Cl)Cl (racemic) [F54, trans-rac-2,2-Dichloro-N-(4-chloro-3-(2-chloro-2,2-difluoroacetamido)phenyl)-3-(3,5-dichlorophenyl)cyclopropane-1-carboxamide] | exhibited activity | exhibited activity
O=C(Nc1ccc(Cl)c(NC(=O)C(F)(F)C(F)(F)C(F)(F)F)c1)[C@H]1[C@H](c2cc(Cl)cc(Cl)c2)C1(Cl)Cl (racemic) [F56, trans-rac-2,2-Dichloro-N-(4-chloro-3-(2,2,3,3,4,4,4-heptafluorobutanamido)phenyl)-3-(3,5-dichlorophenyl)cyclopropane-1-carboxamide] | exhibited activity | exhibited activity
CCC(F)(F)C(=O)Nc1cc(NC(=O)[C@H]2[C@H](c3cc(Cl)cc(Cl)c3)C2(Cl)Cl)ccc1Cl (racemic) [F58, trans-rac-2,2-Dichloro-N-(4-chloro-3-(2,2-difluorobutanamido)phenyl)-3-(3,5-dichlorophenyl)cyclopropane-1-carboxamide] | exhibited activity | exhibited activity
Cc1cc(C#N)ccc1C(=O)Nc1cc(NC(=O)[C@H]2[C@H](c3cc(Cl)cc(Cl)c3)C2(Cl)Cl)ccc1F (racemic) [F60, trans-rac-4-Cyano-N-(5-(2,2-dichloro-3-(3,5-dichlorophenyl)cyclopropane-1-carboxamido)-2-fluorophenyl)-2-methylbenzamide] | exhibited activity | exhibited activity
O=C(Nc1cc(NC(=O)[C@H]2[C@H](c3cc(Cl)cc(Cl)c3)C2(Cl)Cl)ccc1F)c1c(F)cccc1F (racemic) [F61, trans-rac-N-(5-(2,2-Dichloro-3-(3,5-dichlorophenyl)cyclopropane-1-carboxamido)-2-fluorophenyl)-2,6-difluorobenzamide] | exhibited activity | exhibited activity
O=C(Nc1cc(NC(=O)[C@H]2[C@H](c3cc(Cl)cc(Cl)c3)C2(Cl)Cl)ccc1F)c1cc(F)cc(F)c1 (racemic) [F62, trans-rac-N-(5-(2,2-Dichloro-3-(3,5-dichlorophenyl)cyclopropane-1-carboxamido)-2-fluorophenyl)-3,5-difluorobenzamide] | exhibited activity | exhibited activity
CC(CC(=O)Nc1cc(NC(=O)C2C(c3cc(Cl)cc(Cl)c3)C2(Cl)Cl)ccc1F)C(F)(F)F (racemic) [F64, trans-rac-2,2-Dichloro-3-(3,5-dichlorophenyl)-N-(4-fluoro-3-(4,4,4-trifluoro-3-methylbutanamido)phenyl)cyclopropane-1-carboxamide] | exhibited activity | exhibited activity
O=C(Nc1cc(NC(=O)[C@H]2[C@H](c3cc(Cl)cc(Cl)c3)C2(Cl)Cl)ccc1Cl)c1ccc(F)c(F)c1 (racemic) [F67, trans-rac-N-(2-Chloro-5-(2,2-dichloro-3-(3,5-dichlorophenyl)cyclopropane-1-carboxamido)phenyl)-3,4-difluorobenzamide] | exhibited activity | exhibited activity
O=C(Nc1cc(NC(=O)[C@H]2[C@H](c3cc(Cl)cc(Cl)c3)C2(Cl)Cl)ccc1Cl)c1cccc(F)c1F (racemic) [F68, trans-rac-N-(2-Chloro-5-(2,2-dichloro-3-(3,5-dichlorophenyl)cyclopropane-1-carboxamido)phenyl)-2,3-difluorobenzamide] | exhibited activity | exhibited activity
O=C(Nc1cc(NC(=O)[C@H]2[C@H](c3cc(Cl)cc(Cl)c3)C2(Cl)Cl)ccc1Cl)c1cc(F)ccc1F (racemic) [F69, trans-rac-N-(2-Chloro-5-(2,2-dichloro-3-(3,5-dichlorophenyl)cyclopropane-1-carboxamido)phenyl)-2,5-difluorobenzamide] | exhibited activity | exhibited activity
